Data published in US20210393616A1, “PHARMACEUTICAL COMPOSITIONS AND METHODS FOR TREATING PSYCHOSIS” (UNIVERSITA' DEGLI STUDI DI CAGLIARI, priority 2018, published 2021).

Columns and labels:
[1] = tested on: extracellular levels of dopamine; test: Microdialysis of extracellular dopamine in rat medial prefrontal cortex; format: in vivo; conditions: free-moving rats, RS-79948-197 3 mg/kg i.p., clozapine 2.5 mg/kg i.p., FIG. 4
Procedure: The drugs were administered at time T=60 min, as indicated by the arrow. The values are expressed as a percentage of the basal value (mean+/−SEM).
Also, the effect of RS-79948-197 on the extracellular levels of dopamine in the rat prefrontal cerebral cortex, through microdialysis in free-moving rats, was further evaluated. As can be clearly seen in the appended FIG. 4, the effects of the two drugs are substantially overlapping, as both have increased the extracellular concentration of dopamine up to about 250% of the respective basal value. Given the hypothesis of cortical hypodopaminergy in the etiopathogenesis of schizophrenia, the ability of a drug to increase the cortical dopamine is considered a favourable effect for its antipsychotic properties.

rats [2] = test: Pre-pulse inhibition (PPI) deficit induced by MK-801; format: in vivo, rat; conditions: RS-79948-197 3 mg/kg i.p.; MK-801 0.1 mg/kg i.p.; FIG. 3
Procedure: The data are the average of 4-8 rats. *P<0.05, **P<0.01 vs. VEH+MK (one-way ANOVA followed by Tukey's Test).
The activity of RS-79948-197 was also evaluated on the deficit of “pre-pulse inhibition” (PPI) induced by MK-801, an antagonist of NMDA receptors of glutamate. As already mentioned previously, this latter test is considered the “gold standard” for the evaluation of the possible atypical antipsychotic activity of a drug and is predictive of the efficacy on negative symptoms, as well as on positive ones, of schizophrenia.

rats [3] = test: Amphetamine-induced hypermotility test; format: in vivo, rat; conditions: 3 mg/kg i.p.; amphetamine 2.5 mg/kg i.p.; FIG. 1
Procedure: Some behavioural tests were also conducted to identify possible antipsychotic properties of RS-79948-197.

D2 receptors = test: Contractility of the rabbit ear artery, antagonism of the selective D2 agonist quinpirol; conditions: for antagonism of the effect of the selective D2 agonist quinpirol: 100 nM
human D2long receptor = target: T1, human D2long receptor (Homo sapiens, UniProt P14416); test: Replacement of [3H]methyl-spiperone binding from human D2long receptor expressed by HEK-293 cells
T1 construct: expressed in transfected cells; host or cells: HEK-293
Procedure: In particular, the receptor binding study was conducted by analysing the ability to replace the binding of [^3H]methyl-spiperone from the human D2long receptor expressed by HEK-293 cells (Hall, D. A. and Strange, P. G., 1997, Brit. J. Pharmacol. 121:731-736).

rats [4] = test: Quinpirol-induced stereotypies; format: in vivo, rat
Excerpt: The data are the average of 6 rats and are expressed in total counts. *P<0.01 vs. treatment with physiological saline (Student's t-test).

T1 sequence (P14416 whole entry): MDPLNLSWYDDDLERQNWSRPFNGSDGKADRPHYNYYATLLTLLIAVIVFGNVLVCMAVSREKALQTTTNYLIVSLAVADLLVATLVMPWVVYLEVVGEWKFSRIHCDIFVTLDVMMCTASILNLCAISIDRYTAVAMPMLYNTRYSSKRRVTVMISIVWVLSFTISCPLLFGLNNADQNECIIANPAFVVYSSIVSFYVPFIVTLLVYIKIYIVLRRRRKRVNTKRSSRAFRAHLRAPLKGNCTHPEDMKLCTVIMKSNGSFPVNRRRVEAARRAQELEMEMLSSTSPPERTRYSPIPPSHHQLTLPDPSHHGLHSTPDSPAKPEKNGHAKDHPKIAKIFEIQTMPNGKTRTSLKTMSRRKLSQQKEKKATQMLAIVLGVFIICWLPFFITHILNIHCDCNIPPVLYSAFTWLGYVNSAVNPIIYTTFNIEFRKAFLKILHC

| antagonism of the effect of the selective D2 agonist quinpirol (D2 receptors) | effect on quinpirol-induced release at higher concentrations (D2 receptors; higher concentrations than 100 nM) | affinity relative to that of clozapine (human D2long receptor; human D2long receptor) | Ki (human D2long receptor; human D2long receptor expressed by HEK-293 cells, read-out: Ki, inhibition of [3H]methyl-spiperone binding) [µM] | SMILES | extracellular concentration of dopamine, percentage of basal value [1] | PPI deficit induced by MK-801 (rats [2]) | total distance travelled by rats in 120 minutes (rats [3]) | stereotypies induced by quinpirol (rats [4]; 3 mg/kg i.p., quinpirol 0.5 mg/kg i.p., FIG. 2) | extrapyramidal effects per se (rats [4]; rats) |
| --- | --- | --- | --- | --- | --- | --- | --- | --- | --- |
| 70% | completely cancelled | about twice | 0.095 | CCS(=O)(=O)N1CCC[C@@H]2CN3CCc4cc(OC)ccc4[C@@H]3C[C@@H]21.Cl [RS-79948-197, (8aR,12aS,13aS)-5,8,8a,9,10, 11, 12, 12a, 13, 13a-decahydro-3-methoxy-12-(ethylsulphonyl)-6H-isoquino[2,1-g][1,6]naphthyridine] | about 250 % of the respective basal value | effectively reduced | significantly decreased | effectively reduced | without inducing per se extrapyramidal effects |
| about 40% |  |  |  | CCN1CCCC1CNC(=O)c1cc(S(N)(=O)=O)ccc1OC (stereo not shown) [sulpiride, reference compound] |  |  |  |  |  |
